From US20050014952A1, “Novel thiazoline derivatives as selective androgen receptor modulators (SARMS)” (priority 2003, published 2005)
pIC50: −log10 of the molar value.

Legend:
[1] = biological target: T1, androgen receptor (Rattus norvegicus, UniProt P15207); assay: Androgen Receptor Filtration Binding Assay ([3H] R1881 tracer); settings: @ 1 μM test compound; negative values indicate no antagonist activity; cmpd 4: two separate synthesis batches; cmpds 5 and 7: average of 2
T1 construct: 5 pmol androgen receptor LBD (Panvera); purchased Panvera
T1 sequence (P15207 651-882 limits assumed): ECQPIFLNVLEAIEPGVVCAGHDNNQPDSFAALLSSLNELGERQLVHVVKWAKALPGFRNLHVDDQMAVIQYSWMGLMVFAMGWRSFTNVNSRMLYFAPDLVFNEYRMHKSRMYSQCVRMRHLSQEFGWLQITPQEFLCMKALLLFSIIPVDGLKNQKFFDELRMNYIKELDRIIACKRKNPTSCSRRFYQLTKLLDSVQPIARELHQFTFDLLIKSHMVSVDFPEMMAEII

[2] = biological target: T1, androgen receptor; assay: as above; settings: Androgen Receptor Binding Results
Method: In Vitro Assay—Androgen Receptor Filtration Binding Assay
The assay was run on a 96 well plate with each well filled with total reaction volume 150 μL, of a solution containing 5 pmol androgen receptor LBD (Panvera) or 30 μL of freshly prepared rat cytosol, 0.5 nM [^3H] R1881 tracer (NEN), 1.5 μL (10 μM) test compound or vehicle (diluted in 30% DMSO, final concentration of DMSO 0.75%) and […] of TED buffer. (TED buffer contains 10 mM Tris.HCl pH 7.4, 1 mM sodium molybdate (60 mg/250 mL), 1.5 mM EDTA, 1 mM DTT and 10% (v/v) glycerol.)
On day one, the solution containing receptor, tracer and TED buffer was distributed onto a 96 well plate. Diluted test compound or control vehicle was then added to individual wells and the plate incubated at 4° C. overnight.
On day two, to each well was then added 20 μL human γ-globulin (ICN 823102), prepared at 25 mg/ml in TE pH 8.0, and 55 μL 40% polyethylene glycol 8000 (J T Baker U222-08), prepared in TE pH 8.0. The plate was incubated at 4° C. for 60 minutes. During incubation, the harvester was rinsed with 10% PEG 8000, prepared in TE pH 8.0 and the GF/C Unifilter-96 prewet with 10% PEG. The binding reaction was filtered, the retentate was washed three times with 10% PEG and dried under vacuum for about four minutes, then dried at 50° C. for 5 min and then bottom sealed. 25 μL of Microscint-20 (Packard) was added to the filter wells and top sealed. The plate wells were then counted on a TopCount (Packard).
Selected compounds of the present invention were tested for binding to the androgen receptor according to the procedure described above with results as listed in Table 2. Negative number(s) indicate that there is no antagonist activity for the test compound. The compound may however have agonist activity, which was not tested for.

In the case of `CC1(C(=O)Nc2ccc(C#N)c(C(F)(F)F)c2)CSC(c2ccc(F)cc2)=N1` (stereo not drawn) [Cmpd #33, 2-(4-fluoro-phenyl)-4-methyl-4,5-dihydro-thiazole-4-carboxylic Acid (4cyano-3-trifluoromethyl-phenyl)-amide], the inhibition at 1 µM [1] was 27%.
In the case of `O=C(Nc1ccc(Cl)cc1)C1CSC(c2ccc(Cl)cc2)=N1` (stereo not drawn) [Cmpd #16, 2-(4-chloro-phenyl)-4,5-dihydro-thiazole-4-carboxylic Acid (4-chloro-phenyl)-amide], the inhibition at 1 µM [1] was 12%.
`CC1(C)SC(c2ccc(Cl)cc2)=NC1C(=O)Nc1cc(F)c(C#N)cc1F` (stereo not drawn) [Cmpd #23, 2-(4-chloro-phenyl)-5,5-dimethyl-4,5-dihydro-thiazole-4-carboxylic Acid (4-cyano-2,5-difluoro-phenyl)-amide] gave an inhibition at 1 µM [1] of -5%.
For `O=C(Nc1ccc(F)c(C(F)(F)F)c1)C1CSC(c2ccc(F)cc2)=N1` (stereo not drawn) [Cmpd #7, 2-(4-fluoro-phenyl)-4,5-dihydro-thiazole-4-carboxylic Acid (4-fluoro-3-trifluoromethyl-phenyl)-amide], the inhibition at 1 µM [1] was -24.2%.
With `O=C(Nc1cccc(C(F)(F)F)c1F)C1CSC(c2ccc(Cl)cc2)=N1` (stereo not drawn) [Cmpd #24, 2-(4-chloro-phenyl)-4,5-dihydro-thiazole-4-carboxylic Acid (2-fluoro-3-trifluoromethyl-phenyl)-amide] the inhibition at 1 µM [1] was 0.74%.
For `CC1(C(=O)Nc2ccc([N+](=O)[O-])c(C(F)(F)F)c2)CSC(c2ccc(F)cc2)=N1` (stereo not drawn) [compound 13], the pIC50 [2] was less than 5.00 and the inhibition at 1 µM [1] was 29%.
`N#Cc1ccc(NC(=O)C2CSC(c3ccc(F)cc3)=N2)cc1C(F)(F)F` (stereo not drawn) [Cmpd #1, 2-(4-fluoro-phenyl)-4,5-dihydro-thiazole-4-carboxylic Acid (3-trifluoromethyl-4-cyano-phenyl)-amide] was tested, and the inhibition at 10 µM ([2]; @ 10 μM test compound) was 50% and the inhibition at 1 µM [1] was 28.5%.
`O=C(Nc1ccc(F)c(C(F)(F)F)c1)C1CSC(c2ccc(Cl)cc2)=N1` (stereo not drawn) [Cmpd #14, 2-(4-chloro-phenyl)-4,5-dihydro-thiazole-4-carboxylic acid (4-fluoro-3-trifluoromethyl-phenyl)-amide] was tested, and the inhibition at 1 µM [1] was 1.5%.
`CC1(C)SC(c2ccc(F)cc2)=NC1C(=O)Nc1ccc(Cl)c(C(F)(F)F)c1` (stereo not drawn) [Cmpd #21, 2-(4-fluoro-phenyl)-5,5-dimethyl-4,5-dihydro-thiazole-4-carboxylic Acid (4-chloro-3-trifluoromethyl-phenyl)-amide] showed an inhibition at 1 µM [1] of 29%.
With `O=C(Nc1ccc([N+](=O)[O-])c(C(F)(F)F)c1)C1CSC(c2ccc(Cl)cc2)=N1` (stereo not drawn) [Cmpd #10, 2-(4-chloro-phenyl)-4,5-dihydro-thiazole-4-carboxylic acid (4-nitro-3-trifluoromethyl-phenyl)-amide] the inhibition at 1 µM [1] was 60.5%.
`CC1(C)SC(c2ccc(Cl)cc2)=NC1C(=O)Nc1ccc(Cl)c(C(F)(F)F)c1` (stereo not drawn) [Cmpd #22, 2-(4-chloro-phenyl)-5,5-dimethyl-4,5-dihydro-thiazole-4-carboxylic Acid (4-chloro-3-trifluoromethyl-phenyl)-amide] was tested, and the inhibition at 1 µM [1] was 0%.
In the case of `O=C(Nc1ccc(S(=O)(=O)C(F)(F)F)cc1)C1CSC(c2ccc(Cl)cc2)=N1` (stereo not drawn) [Cmpd #29, 2-(4-chloro-phenyl)-4,5-dihydro-thiazole-4-carboxylic Acid (4-trifluoromethanesulfonyl-phenyl)-amide], the inhibition at 1 µM [1] was 25%.
For `O=C(Nc1ccc([N+](=O)[O-])c(C(F)(F)F)c1)C1CSC(c2cccc(Cl)c2)=N1` (stereo not drawn) [Cmpd #30, 2-(3-chloro-phenyl)-4,5-dihydro-thiazole-4-carboxylic Acid (4-nitro-3-trifluoromethyl-phenyl)-amide], the inhibition at 1 µM [1] was 7%.
In the case of `CC1(C)SC(c2ccc(F)cc2)=NC1C(=O)Nc1ccc([N+](=O)[O-])c(C(F)(F)F)c1` (stereo not drawn) [Cmpd #20, 2-(4-fluoro-phenyl)-5,5-dimethyl-4,5-dihydro-thiazole-4-carboxylic Acid (4-nitro-3-trifluoromethyl-phenyl)-amide], the inhibition at 1 µM [1] was 29%.
`CC1(C(=O)Nc2ccc(Cl)c(C(F)(F)F)c2)CSC(c2ccc(F)cc2)=N1` (stereo not drawn) [compound 12] was tested, and the pIC50 [2] was less than 5.00 and the inhibition at 1 µM [1] was 52%.
In the case of `O=C(Nc1ccc(Cl)c(C(F)(F)F)c1)C1CSC(c2ccc(Cl)cc2)=N1` (stereo not drawn) [Cmpd #11, 2-(4-chloro-phenyl)-4,5-dihydro-thiazole-4-carboxylic acid (4-chloro-3-trifluoromethyl-phenyl)-amide], the pIC50 [2] was 5.46 and the inhibition at 1 µM [1] was 30.5%.
Compound `O=C(Nc1ccc(Cl)c(C(F)(F)F)c1)C1CSC(c2cccc(Cl)c2)=N1` (stereo not drawn) [Cmpd #26, 2-(3-chloro-phenyl)-4,5-dihydro-thiazole-4-carboxylic Acid (4-chloro-3-trifluoromethyl-phenyl)-amide] has an inhibition at 1 µM [1] of 15%.
Compound `O=C(Nc1ccc(Cl)c(C(F)(F)F)c1)C1CSC(c2ccc(F)cc2)=N1` (stereo not drawn) [compound 5, 2-(4-fluoro-phenyl)-4,5-dihydro-thiazole-4-carboxylic Acid (4-chloro-3-trifluoromethyl-phenyl)-amide] has an inhibition at 1 µM [1] of 12.3%.
In the case of `O=C(Nc1cccc(C(F)(F)F)c1F)C1CSC(c2ccc(F)cc2)=N1` (stereo not drawn) [Cmpd #25, 2-(4-fluoro-phenyl)-4,5-dihydro-thiazole-4-carboxylic Acid (2-fluoro-3-trifluoromethyl-phenyl)-amide], the inhibition at 1 µM [1] was -8%.
For `CC1(C)SC(c2ccc(F)cc2)=NC1C(=O)Nc1ccc(C#N)c(C(F)(F)F)c1` (stereo not drawn) [Cmpd #19, 2-(4-fluoro-phenyl)-5,5-dimethyl-4,5-dihydro-thiazole-4-carboxylic Acid (4-cyano-3-trifluoromethyl-phenyl)-amide], the inhibition at 1 µM [1] was -1%.
With `O=C(Nc1ccc(Cl)c(C(F)(F)F)c1)C1CSC(c2cccc(F)c2)=N1` (stereo not drawn) [Cmpd #17, 2-(3-fluoro-phenyl)-4,5-dihydro-thiazole4-carboxylic Acid (4-chloro-3-trifluoromethyl-phenyl)-amide] the inhibition at 1 µM [1] was -34%.
For `O=C(Nc1ccc(S(=O)(=O)C(F)(F)F)cc1)C1CSC(c2cccc(Cl)c2)=N1` (stereo not drawn) [Cmpd #31, 2-(3-chloro-phenyl)-4,5-dihydro-thiazole-4-carboxylic Acid (4-trifluoromethanesulfonyl-phenyl)-amide], the inhibition at 1 µM [1] was 10%.
In the case of `O=C(Nc1cccc(C(F)(F)F)c1F)C1CSC(c2cccc(Cl)c2)=N1` (stereo not drawn) [Cmpd #32, 2-(3-chloro-phenyl)-4,5-dihydro-thiazole4-carboxylic Acid (2-fluoro-3-trifluoromethyl-phenyl)-amide], the inhibition at 1 µM [1] was 8.5%.
For `N#Cc1ccc(NC(=O)C2CSC(c3cccc(Cl)c3)=N2)cc1C(F)(F)F` (stereo not drawn) [Cmpd #27, 2-(3-chloro-phenyl)-4,5-dihydro-thiazole-4-carboxylic Acid (4-cyano-3-trifluoromethyl-phenyl)-amide], the inhibition at 1 µM [1] was 34%.
In the case of `N#Cc1ccc(NC(=O)C2CSC(c3ccc(F)cc3)=N2)cc1` (stereo not drawn) [Cmpd #2, 2-(4-fluoro-phenyl)-4,5-dihydro-thiazole-4-carboxylic Acid (4-cyano-phenyl)-amide], the inhibition at 1 µM [1] was -26%.
With `O=C(Nc1ccc(F)c(C(F)(F)F)c1)C1CSC(c2cccc(F)c2)=N1` (stereo not drawn) [Cmpd #18, 2-(3-fluoro-phenyl)-4,5-dihydro-thiazole-4-carboxylic Acid (4-fluoro-3-trifluoromethyl-phenyl)-amide] the inhibition at 1 µM [1] was -19%.
For `N#Cc1ccc(NC(=O)C2CSC(c3ccc(Cl)cc3)=N2)cc1C(F)(F)F` (stereo not drawn) [Cmpd #9, 2-(4-chloro-phenyl)-4,5-dihydro-thiazole-4-carboxylic acid (4-cyano-3-trifluoromethyl-phenyl)-amide], the inhibition at 1 µM [1] was 41.5%.
`O=C(Nc1ccc(S(=O)(=O)C(F)(F)F)cc1)C1CSC(c2ccc(F)cc2)=N1` (stereo not drawn) [Cmpd #28, 2-(4-fluoro-phenyl)-4,5-dihydro-thiazole-4-carboxylic Acid (4-trifluoromethanesulfonyl-phenyl)-amide] showed an inhibition at 1 µM [1] of -6.3%.
`N#Cc1ccc(NC(=O)C2CSC(c3cccc(F)c3)=N2)cc1C(F)(F)F` (stereo not drawn) [Cmpd #3, 2-(3-fluoro-phenyl)-4,5-dihydro-thiazole-4-carboxylic Acid (4-cyano-3-trifluoromethyl-phenyl)-amide] gave an inhibition at 1 µM [1] of 8.1%.
